Patent publication US7332328B2, “Microcolumn-platform based array for high-throughput analysis” (Corning Incorporated, priority 2001, dated 2008)

Target: adrenergic β1 receptor (Homo sapiens, UniProt P08588)
Assay: Ligand binding assay on adrenergic β1 receptor arrays printed on microcolumns
Settings: 5 nM labeled ligand, microcolumn #1, about one hour incubation
Method: These glass microcolumns were coated with a thin gold layer and functionalized with GAPS. […] To assay ligand binding, the microcolumns were inserted into the wells of an 1×8-Stripwell plate (Corning®) containing a fluorescently-labeled β1 receptor ligand (bodipy-TMR CGP12177) (5 nM) in a ligand binding buffer (50 mM Tris-HCl, 2 mM EDTA, 1 mM MgCl2, pH 7.4, 0.1% BSA). […] Following incubation of about one hour, the microcolumns were removed, washed, and scanned to assess ligand binding on the array.

Sequence of adrenergic β1 receptor (P08588 whole entry): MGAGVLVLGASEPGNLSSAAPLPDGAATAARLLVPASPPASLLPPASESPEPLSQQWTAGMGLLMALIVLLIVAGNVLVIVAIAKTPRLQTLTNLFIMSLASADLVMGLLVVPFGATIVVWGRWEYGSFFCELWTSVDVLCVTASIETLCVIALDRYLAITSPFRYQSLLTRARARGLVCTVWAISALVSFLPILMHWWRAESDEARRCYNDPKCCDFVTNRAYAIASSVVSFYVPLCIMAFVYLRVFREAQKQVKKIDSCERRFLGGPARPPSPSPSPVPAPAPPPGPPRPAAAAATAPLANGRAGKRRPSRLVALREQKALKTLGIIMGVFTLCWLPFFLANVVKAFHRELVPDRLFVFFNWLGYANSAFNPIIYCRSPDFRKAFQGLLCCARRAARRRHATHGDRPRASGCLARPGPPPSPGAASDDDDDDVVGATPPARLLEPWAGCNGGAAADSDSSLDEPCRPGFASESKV

Substance: bodipy-TMR CGP12177
- Binding of fluorescently-labeled ligand to the β1 receptor array (fluorescent signal): high fluorescent signal
